≈ marks a conversion by molar mass, not a printed value.
What was measured:
Salmonella typhi = assay: Antibacterial activity against beta-lactamase producing Salmonella typhi H901 after 18 hrs by agar dilution assay; type: functional, Salmonella enterica subsp. enterica serovar Typhi; conditions: Salmonella enterica, H901, 18 h
Proteus mirabilis = assay: Antibacterial activity against beta-lactamase producing Proteus mirabilis 09-1 after 18 hrs by agar dilution assay; type: functional; conditions: 09-1, 18 h
Proteus vulgaris = assay: Antibacterial activity against beta-lactamase producing Proteus vulgaris 29905 after 18 hrs by agar dilution assay; type: functional; conditions: Proteus vulgaris, 29905, 18 h
Providencia rettgeri = assay: Antibacterial activity against Providencia rettgeri 31052 after 18 hrs by agar dilution assay; type: functional; conditions: Providencia rettgeri, 31052, 18 h
Pseudomonas aeruginosa [1] = assay: Antimicrobial activity against Pseudomonas aeruginosa PAO1 after 18 hrs by microdilution method in absence of iron; conditions: PAO1, 18 h
Morganella morganii = assay: Antibacterial activity against beta-lactamase producing Morganella morganii 25830 after 18 hrs by agar dilution assay; type: functional; conditions: Morganella morganii, 25830, 18 h
Serratia marcescens = assay: Antibacterial activity against beta-lactamase producing Serratia marcescens 41002 after 18 hrs by agar dilution assay; type: functional; conditions: Serratia marcescens, 41002, 18 h
Klebsiella aerogenes = assay: Antibacterial activity against beta-lactamase producing Enterobacter aerogenes 45102 after 18 hrs by agar dilution assay; type: functional; conditions: Klebsiella aerogenes, 45102, 18 h
Enterobacter cloacae = assay: Antibacterial activity against beta-lactamase producing Enterobacter cloacae 45301 after 18 hrs by agar dilution assay; type: functional; conditions: Enterobacter cloacae, 45301, 18 h
Pseudomonas aeruginosa [2] = assay: Antimicrobial activity against Pseudomonas aeruginosa 27853 after 18 hrs by microdilution method in presence of 0.4 uM iron; type: functional
Pseudomonas aeruginosa [3] = assay: Antimicrobial activity against Pseudomonas aeruginosa 27853 after 18 hrs by microdilution method in presence of 40 uM iron; type: functional
Escherichia coli [4] = assay: Selectivity ratio of MIC for Escherichia coli BL21 to MIC for acrAB and acrEF knock-out Escherichia coli BL21; type: functional
Klebsiella pneumoniae [5] = assay: Antibacterial activity against ESBL negative Klebsiella pneumoniae 7 after 18 hrs by agar dilution assay; type: functional; conditions: Klebsiella pneumoniae, 7, 18 h
Klebsiella pneumoniae [6] = assay: Antibacterial activity against NDM-1 positive Klebsiella pneumoniae BAA-2146 after 18 hrs by agar dilution assay; type: functional; conditions: BAA-2146, 18 h
Klebsiella pneumoniae [7] = assay: Antibacterial activity against ESBL negative Klebsiella pneumoniae 09-8 after 18 hrs by agar dilution assay; type: functional; conditions: 09-8, 18 h
Pseudomonas aeruginosa [8] = assay: Antimicrobial activity against Pseudomonas aeruginosa PAO1 after 18 hrs by microdilution method in presence of 0.4 uM iron; type: functional
Pseudomonas aeruginosa [9] = assay: Antimicrobial activity against Pseudomonas aeruginosa 27853 after 18 hrs by microdilution method in presence of 4 uM iron; type: functional
Pseudomonas aeruginosa [10] = assay: Antimicrobial activity against Pseudomonas aeruginosa PAO1 after 18 hrs by microdilution method in presence of 4 uM iron; type: functional
Pseudomonas aeruginosa [11] = assay: Antimicrobial activity against Pseudomonas aeruginosa PAO1 after 18 hrs by microdilution method in presence of 40 uM iron; type: functional
Escherichia coli [12] = assay: Antibacterial activity against acrAB and acrEF knock-out Escherichia coli BL21 by microbroth dilution assay; type: functional
Escherichia coli [13] = assay: Antibacterial activity against Escherichia coli BL21 by microbroth dilution assay; type: functional
Pseudomonas aeruginosa [14] = assay: Antibacterial activity against BL positive Pseudomonas aeruginosa 09-14 after 18 hrs by agar dilution assay; type: functional; conditions: 09-14, 18 h
Pseudomonas aeruginosa [15] = assay: Antibacterial activity against BL positive Pseudomonas aeruginosa PAO1 after 18 hrs by agar dilution assay; type: functional; conditions: PAO1, 18 h
Pseudomonas aeruginosa [16] = assay: Antibacterial activity against BL positive Pseudomonas aeruginosa 27853 after 18 hrs by agar dilution assay; type: functional; conditions: Pseudomonas aeruginosa, 27853, 18 h
Klebsiella pneumoniae [17] = assay: Antibacterial activity against ESBL positive Klebsiella pneumoniae 09-25 after 18 hrs by agar dilution assay; type: functional; conditions: 09-25, 18 h
Klebsiella pneumoniae [18] = assay: Antibacterial activity against ESBL positive Klebsiella pneumoniae 700603 after 18 hrs by agar dilution assay; type: functional; conditions: Klebsiella pneumoniae, 700603, 18 h
Escherichia coli [19] = assay: Antibacterial activity against ESBL negative Escherichia coli 09-20 after 18 hrs by agar dilution assay; type: functional; conditions: 09-20, 18 h
Escherichia coli [20] = assay: Antibacterial activity against ESBL positive Escherichia coli 09-1 after 18 hrs by agar dilution assay; type: functional; conditions: 09-1, 18 h
Escherichia coli [21] = assay: Antibacterial activity against ESBL negative Escherichia coli 1515 after 18 hrs by agar dilution assay; type: functional; conditions: Escherichia coli, 1515, 18 h
Escherichia coli [22] = assay: Antibacterial activity against ESBL negative Escherichia coli 25922 after 18 hrs by agar dilution assay; type: functional; conditions: Escherichia coli, 25922, 18 h
Citrobacter freundii = assay: Antibacterial activity against beta-lactamase producing Citrobacter freundii 43864 after 18 hrs by agar dilution assay; type: functional; conditions: Citrobacter freundii, 43864, 18 h
Pseudomonas aeruginosa [23] = assay: microbe, parasite or virus in culture; conditions: Pseudomonas aeruginosa, 27853, 18 h
Description: Antimicrobial activity against Pseudomonas aeruginosa 27853 after 18 hrs by microdilution method in absence of iron

[24] = Pseudomonas aeruginosa, 27853, 18 h

| Molecule | MIC (Salmonella typhi) | MIC (Proteus mirabilis) | MIC (Proteus vulgaris) | MIC (Providencia rettgeri) | MIC (Morganella morganii) | MIC (Serratia marcescens) | MIC (Klebsiella aerogenes) | MIC (Enterobacter cloacae) | Selectivity ratio (Escherichia coli [4]) | MIC (Klebsiella pneumoniae [5]) | MIC (Klebsiella pneumoniae [6]) | MIC (Klebsiella pneumoniae [7]) | MIC (Escherichia coli [12]) | MIC (Escherichia coli [13]) | MIC (Pseudomonas aeruginosa [14]) | MIC (Pseudomonas aeruginosa [15]) | MIC (Pseudomonas aeruginosa [16]) | MIC (Klebsiella pneumoniae [17]) | MIC (Klebsiella pneumoniae [18]) | MIC (Escherichia coli [19]) | further results |
| --- | --- | --- | --- | --- | --- | --- | --- | --- | --- | --- | --- | --- | --- | --- | --- | --- | --- | --- | --- | --- | --- |
| CCN(CC)CC.C[C@H]1[C@H](NC(=O)/C(=N\OCc2ccc(C(=O)N/N=C/c3ccccc3O)cc2)c2csc(N)n2)C(=O)N1S(=O)(=O)O (relative stereo) | 0.5 µg/mL | 8 µg/mL | 0.25 µg/mL | ≤ 0.03 µg/mL | 2 µg/mL | 8 µg/mL | 2 µg/mL | 2 µg/mL | >16 | 2 µg/mL | > 64 µg/mL | 16 µg/mL | 2 µg/mL | 64 µg/mL | 4 µg/mL | 4 µg/mL | 8 µg/mL | > 64 µg/mL | > 64 µg/mL | 64 µg/mL | MIC (Pseudomonas aeruginosa [1]): > 128 µg/mL; MIC (Pseudomonas aeruginosa [2]; [24]): 128 µg/mL; MIC (Pseudomonas aeruginosa [3]; [24]): > 128 µg/mL; MIC (Pseudomonas aeruginosa [8]; PAO1, 18 h): 128 µg/mL; MIC (Pseudomonas aeruginosa [9]; [24]): 128 µg/mL; MIC (Pseudomonas aeruginosa [10]; PAO1, 18 h): 128 µg/mL; MIC (Pseudomonas aeruginosa [11]; PAO1, 18 h): > 128 µg/mL; MIC (Escherichia coli [20]): 64 µg/mL; MIC (Escherichia coli [21]): 2 µg/mL; MIC (Escherichia coli [22]): 4 µg/mL; MIC (Citrobacter freundii): 4 µg/mL; MIC (Pseudomonas aeruginosa [23]): 128 µg/mL |
| CC1(C)[C@H](NC(=O)/C(=N\OCc2ccccn2)c2csc(N)n2)C(=O)N1S(=O)(=O)O | 32 µg/mL (≈ 70.4 µM) | 2 µg/mL (≈ 4.4 µM) | 0.125 µg/mL (≈ 0.275 µM) | 0.06 µg/mL (≈ 0.132 µM) | 0.5 µg/mL (≈ 1.1 µM) | 8 µg/mL (≈ 17.6 µM) | 8 µg/mL (≈ 17.6 µM) | 1 µg/mL (≈ 2.2 µM) | >16 | 4 µg/mL (≈ 8.8 µM) | 16 µg/mL (≈ 35.2 µM) | 4 µg/mL (≈ 8.8 µM) | ≤ 0.06 µg/mL | 2 µg/mL (≈ 4.4 µM) | 64 µg/mL (≈ 141 µM) | 32 µg/mL (≈ 70.4 µM) | 64 µg/mL (≈ 141 µM) | 32 µg/mL (≈ 70.4 µM) | > 128 µg/mL | 4 µg/mL (≈ 8.8 µM) | MIC (Pseudomonas aeruginosa [1]): 64 µg/mL (≈ 141 µM); MIC (Pseudomonas aeruginosa [2]; [24]): 128 µg/mL; MIC (Pseudomonas aeruginosa [3]; [24]): 128 µg/mL; MIC (Pseudomonas aeruginosa [8]; PAO1, 18 h): 64 µg/mL; MIC (Pseudomonas aeruginosa [9]; [24]): 128 µg/mL; MIC (Pseudomonas aeruginosa [10]; PAO1, 18 h): 128 µg/mL; MIC (Pseudomonas aeruginosa [11]; PAO1, 18 h): 64 µg/mL; MIC (Escherichia coli [20]): 4 µg/mL (≈ 8.8 µM); MIC (Escherichia coli [21]): 2 µg/mL (≈ 4.4 µM); MIC (Escherichia coli [22]): 2 µg/mL (≈ 4.4 µM); MIC (Citrobacter freundii): 2 µg/mL (≈ 4.4 µM); MIC (Pseudomonas aeruginosa [23]): 128 µg/mL (≈ 282 µM) |
| CCN(CC)CC.C[C@H]1[C@H](NC(=O)/C(=N\OCc2ccc(C(=O)N/N=C/c3cccs3)cc2)c2csc(N)n2)C(=O)N1S(=O)(=O)O (relative stereo) | 1 µg/mL | 4 µg/mL | 0.06 µg/mL | ≤ 0.03 µg/mL | 1 µg/mL | 2 µg/mL | 2 µg/mL | 1 µg/mL | >16 | 2 µg/mL | > 64 µg/mL | 8 µg/mL | ≤ 0.06 µg/mL | 2 µg/mL | 32 µg/mL | 64 µg/mL | 64 µg/mL | > 64 µg/mL | 64 µg/mL | 64 µg/mL | MIC (Escherichia coli [20]): 64 µg/mL; MIC (Escherichia coli [21]): 4 µg/mL; MIC (Escherichia coli [22]): 4 µg/mL; MIC (Citrobacter freundii): 2 µg/mL |
| GENTAMICIN |  |  |  |  |  |  |  |  |  |  |  |  |  |  |  |  |  |  |  |  | MIC (Pseudomonas aeruginosa [2]): 1 µg/mL; MIC (Pseudomonas aeruginosa [3]): 128 µg/mL; MIC (Pseudomonas aeruginosa [8]): 128 µg/mL; MIC (Pseudomonas aeruginosa [9]): 1 µg/mL; MIC (Pseudomonas aeruginosa [10]): 1 µg/mL; MIC (Pseudomonas aeruginosa [11]): 128 µg/mL |
| CC1(C)[C@H](NC(=O)/C(=N\OCc2cccnc2)c2csc(N)n2)C(=O)N1S(=O)(=O)O | 32 µg/mL (≈ 70.4 µM) | 32 µg/mL (≈ 70.4 µM) | 0.25 µg/mL (≈ 0.55 µM) | 0.03 µg/mL (≈ 0.066 µM) | 0.5 µg/mL (≈ 1.1 µM) | 8 µg/mL (≈ 17.6 µM) | 8 µg/mL (≈ 17.6 µM) | 4 µg/mL (≈ 8.8 µM) | >16 | 4 µg/mL (≈ 8.8 µM) | 32 µg/mL (≈ 70.4 µM) | 8 µg/mL (≈ 17.6 µM) | 0.5 µg/mL (≈ 1.1 µM) | 32 µg/mL (≈ 70.4 µM) | > 128 µg/mL | 128 µg/mL (≈ 282 µM) | > 128 µg/mL | 8 µg/mL (≈ 17.6 µM) | 64 µg/mL (≈ 141 µM) | 4 µg/mL (≈ 8.8 µM) | MIC (Pseudomonas aeruginosa [1]): > 128 µg/mL; MIC (Pseudomonas aeruginosa [2]; [24]): > 128 µg/mL; MIC (Pseudomonas aeruginosa [3]; [24]): > 128 µg/mL; MIC (Pseudomonas aeruginosa [8]; PAO1, 18 h): > 128 µg/mL; MIC (Pseudomonas aeruginosa [9]; [24]): > 128 µg/mL; MIC (Pseudomonas aeruginosa [10]; PAO1, 18 h): > 128 µg/mL; MIC (Pseudomonas aeruginosa [11]; PAO1, 18 h): > 128 µg/mL; MIC (Escherichia coli [20]): 4 µg/mL (≈ 8.8 µM); MIC (Escherichia coli [21]): 16 µg/mL (≈ 35.2 µM); MIC (Escherichia coli [22]): 8 µg/mL (≈ 17.6 µM); MIC (Citrobacter freundii): 4 µg/mL (≈ 8.8 µM); MIC (Pseudomonas aeruginosa [23]): > 128 µg/mL |

— ChEMBL document CHEMBL3763031, “Design, synthesis and biological evaluation of monobactams as antibacterial agents against gram-negative bacteria” (2016)
